Test results from BindingDB's records for doi:10.1016/j.bmcl.2012.12.050 (Actelion Pharmaceuticals, 2013).

Test: Antagonist activity against CRTh2 receptor in human eosinophils assessed as cell shape change

With N#C/C(=C\c1cn(CC(=O)O)c2ccccc12)C(=O)N1CCCc2ccccc21 the IC50 was 160 nM.
